Laboratory results published in publication PMC2843552 (Cancer research, 2010).

Tests used:
[1] = system: STAT3 transcriptional activity in MDA-MB-231 cells; assay: STAT3-dependent transcriptional luciferase assay; conditions: 24 hours of treatment
[2] = system: MDA-MB-231 breast cancer cell line; assay: Combinatorial effect with doxorubicin on cell viability; conditions: 100–400 nM doxorubicin with 5000 nM compound; p < 0.05 over either agent alone
[3] = system: HMEC cells; assay: Western blot of cleaved caspase-3 in normal cells; conditions: concentrations as high as 10 µM; normal breast cells
[4] = system: MDA-MB-231 cells; assay: Soft agar colony formation assay; conditions: MDA-MB-231, soft agar, two weeks
[5] = system: HPDE cells; assay: Western blot of cleaved caspase-3 in normal cells; conditions: concentrations as high as 10 µM; normal pancreatic cells
[6] = system: JAK2; assay: HTScan JAK2 Kinase Assay; assay type: biochemical, human; conditions: 5 µM; over a DMSO control; P<0.05
[7] = system: STAT3 DNA-binding activity in PANC-1 cells; assay: STAT3 DNA-binding activity in nuclear extracts; conditions: 24 hours treatment
[8] = system: BdsMC bladder cells; assay: Apoptosis in normal cells; conditions: normal cell line
[9] = system: WI-38 lung cells; assay: Apoptosis in normal cells; conditions: normal cell line
[10] = system: STAT1 DNA-binding activity in MDA-MB-231 cells; assay: STAT1 DNA-binding activity in nuclear extracts; conditions: 24 hours treatment
[11] = system: P-STAT3 in PANC-1 pancreatic cancer cells; assay: Western blot of P-STAT3; conditions: 2.5 and 5 µM, 24 hours
[12] = system: STAT3 DNA-binding activity in MDA-MB-231 cells; assay: STAT3 DNA-binding activity in nuclear extracts; conditions: 24 hours treatment
[13] = system: MDA-MB-231 cells; assay: Laminin-based cell invasion assay; conditions: 1 µM, 24 hours
[14] = system: P-STAT3 in MDA-MB-231 breast cancer cells; assay: Western blot of P-STAT3; conditions: 2.5 and 5 µM, 24 hours

caspase-3 cleavage [3] | caspase-3 cleavage [5] | reduction in JAK2 kinase activity [6] | SMILES | luciferase activity [1] | combination effect with doxorubicin on cell viability [2] | reduction of overall colony numbers over that of curcumin [4] | STAT3 DNA-binding activity [7] | apoptosis [8] | apoptosis [9] | STAT1 DNA-binding activity [10] | levels of P-STAT3 [11] | STAT3 DNA-binding activity [12] | invasive capacity [13] | levels of P-STAT3 [14]
unable to induce caspase-3 cleavage | unable to induce caspase-3 cleavage | approximately 60% | COc1ccc(/C=C/C(=O)C(C)(C)C(=O)/C=C/c2ccc(OC)c(OC)c2)cc1OC [FLLL31] | reduced luciferase activity in a dose-dependent fashion | synergistic | approximately 40% | dropped sharply | no evidence of apoptosis | no evidence of apoptosis | slightly enhanced | effectively reduced | dropped sharply | substantially reduced | effectively reduced
 |  |  | COc1cc(/C=C/C(=O)CC(=O)/C=C/c2ccc(O)c(OC)c2)ccc1O [curcumin, reference compound] |  |  |  |  |  |  |  |  |  | comparatively minimal impact | 
